Measured values as given in patent US6906074B2, “2-phenylpiperazine derivatives” (Nippon Zoki Pharmaceutical Co., Ltd., priority 2002, dated 2005).
Marks after values point to notes of the source that are not given here.

Tests used:
human NK1 receptors = human NK1 receptors (Homo sapiens, UniProt P25103); test: Binding assay for human NK1 receptors ((3H)-Sar9-SP, human NK1-CHO cells)
[1] = tested on: Substance P-induced increase of vascular permeability (tachykinin receptor); test: Substance P-induced increase of vascular permeability in guinea pig skin (Evans Blue dye); format: in vivo, guinea pigs; conditions: Substance P 1 pmole/site, 10 mg/kg oral
Experimental: (§1) The compounds of the present invention and synthesized LY-303870 were suspended or dissolved in 0.5% sodium carboxymethylcellulose solution, and orally administered at the dose of 5 mL/kg. to male Hartley SPF guinea pigs of 6 week age.
(§2) Guinea pigs, sheared of fur, were anesthetized with ether and 1% Evan Blue dye in physiological saline (1 mL/500 g b.w.) was injected into their fore-leg intravenously. Immediately after the dye injection, SP (1 pmol/site), NKA (100 pmol/site) and NKB (100 pmol/site) in physiological saline were injected dorsal intradermally (0.05 mL/site) whereby the reaction of increase of vascular permeability was induced. Half an hour after tachykinin challenge, the animals were sacrificed by decapitation and bloodletting, and the dorsal skin was removed and the amount of transuded blue dye thereof was measured. Namely, the blue dyed sites were punched out using a punch for leather (16 mm diameter), of which 2 pieces were allowed to stand at 37° C. overnight in a covered tube with addition of 1 mL of 2 mol/L KOH solution. After stirring well, 6 mL of a mixture of 2 mol/L H3PO4 solution and acetone (1:3) were added thereto and Evans Blue dye was extracted by vigorous shaking for 10 minutes. After the precipitate was filtered off, the absorbance of the filtrate was measured at 620 nm with a spectrophotometer and the amount of dye was determined from the calibration curve. Nonspecific reaction was estimated from the amount of transuded dye by the injection of physiological saline. The significant difference in the average values between the control group and the test compound-treated group was calculated by means of a Student's t-test or Dunnett's test (Statistical Library I, two-sided test, Yukms).
(§3) The tested compounds were orally administered at a dose of 10 mg/kg at various points from 30 min to 8 hrs before the induction of tachykinin-induced increase of vascular permeability. An example of the results is shown in Table 2 (* and ** stand for the significant difference of p<0.05 and p<0.01 respectively compared to control).

[2] = tested on: Neurokinin A-induced increase of vascular permeability (tachykinin receptor); test: Neurokinin A-induced increase of vascular permeability in guinea pig skin (Evans Blue dye); format: in vivo, guinea pigs; conditions: Neurokinin A 100 pmole/site, 10 mg/kg oral
Experimental: as §1, §2, §3

[3] = tested on: Neurokinin B-induced increase of vascular permeability (tachykinin receptor); test: Neurokinin B-induced increase of vascular permeability in guinea pig skin (Evans Blue dye); format: in vivo, guinea pigs; conditions: Neurokinin B 100 pmole/site, 10 mg/kg oral
Experimental: as §1, §2, §3

[4] = 0.5 hr from administration to induction
[5] = 1 hr from administration to induction
[6] = 2 hr from administration to induction
[7] = 4 hr from administration to induction
[8] = 8 hr from administration to induction
[9] = 3 hr from administration to induction

human NK1 receptors, sequence (P25103 whole entry): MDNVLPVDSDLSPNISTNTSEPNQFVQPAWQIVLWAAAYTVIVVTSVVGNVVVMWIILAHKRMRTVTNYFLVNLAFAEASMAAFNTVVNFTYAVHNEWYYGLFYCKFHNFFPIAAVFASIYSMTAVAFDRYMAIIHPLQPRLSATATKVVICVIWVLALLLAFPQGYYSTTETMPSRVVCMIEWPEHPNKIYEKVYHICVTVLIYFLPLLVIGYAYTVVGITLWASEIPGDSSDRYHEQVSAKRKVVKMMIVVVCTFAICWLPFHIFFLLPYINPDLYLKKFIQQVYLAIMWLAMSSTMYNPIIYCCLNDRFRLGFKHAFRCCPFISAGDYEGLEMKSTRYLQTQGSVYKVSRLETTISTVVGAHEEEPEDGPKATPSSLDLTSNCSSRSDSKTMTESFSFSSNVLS

CN(C)Cc1[nH]nnc1CN1CC(=O)N[C@H](COCc2cc(C(F)(F)F)cc(C(F)(F)F)c2)[C@@H]1c1ccc(F)cc1.Cl.Cl
melting point: 213 to 216 °C

CN(C)Cc1[nH]nnc1CN1CC(=O)N(C)[C@H](COCc2cc(C(F)(F)F)cc(C(F)(F)F)c2)[C@@H]1c1ccc(F)cc1.Cl.Cl
melting point: 142 to 145 °C

Cl.O=C1CN[C@@H](c2ccccc2)[C@@H](COCc2cc(C(F)(F)F)cc(C(F)(F)F)c2)N1
melting point: 219 to 221 °C

O=C1CN(Cc2n[nH]c(=O)[nH]2)[C@@H](c2ccccc2)[C@@H](COCc2cc(C(F)(F)F)cc(C(F)(F)F)c2)N1 [Compound 12, (5S,6S)-6-(3,5-Bis(trifluoromethyl)benzyloxymethyl)-4-(5-oxo-4,5-dihydro-1H-(1,2,4)triazol-3-ylmethyl)-5-phenylpiperazin-2-one]
IC50 (human NK1 receptors): 1.5 nM

CN1C(=O)CN(Cc2n[nH]c(=O)[nH]2)[C@@H](c2ccccc2)[C@H]1COCc1cc(C(F)(F)F)cc(C(F)(F)F)c1 [Compound 26, (5S,6S)-6-(3,5-Bis(trifluoromethyl)benzyloxymethyl)-1-methyl-4-(5-oxo-4,5-dihydro-1H-(1,2,4)triazol-3-ylmethyl)-5-phenylpiperazin-2-one]
amount of transuded blue dye, Mean ± S.E [1, 4]: 6.2 ± 1.5**
amount of transuded blue dye, Mean ± S.E [1, 5]: 1.4 ± 0.6**
amount of transuded blue dye, Mean ± S.E [1, 6]: 4.3 ± 0.9**
amount of transuded blue dye, Mean ± S.E [1, 7]: 4.9 ± 1.3**
amount of transuded blue dye, Mean ± S.E [1, 8]: 11.9 ± 2.4**
amount of transuded blue dye, Mean ± S.E [2, 4]: 3.6 ± 0.7**
amount of transuded blue dye, Mean ± S.E [2, 5]: 1.0 ± 0.5**
amount of transuded blue dye, Mean ± S.E [2, 6]: 2.6 ± 1.4**
amount of transuded blue dye, Mean ± S.E [2, 7]: 3.6 ± 2.6**
amount of transuded blue dye, Mean ± S.E [2, 8]: 10.1 ± 3.3
amount of transuded blue dye, Mean ± S.E [3, 4]: 1.4 ± 0.9**
amount of transuded blue dye, Mean ± S.E [3, 5]: 0.1 ± 0.1**
amount of transuded blue dye, Mean ± S.E [3, 6]: 0.5 ± 0.4**
amount of transuded blue dye, Mean ± S.E [3, 7]: 1.0 ± 0.4**
amount of transuded blue dye, Mean ± S.E [3, 8]: 9.4 ± 1.6**
IC50 (human NK1 receptors): 0.04 nM

O=C1CN(Cc2n[nH]c(=O)[nH]2)[C@H](c2ccccc2)[C@H](COCc2cc(C(F)(F)F)cc(C(F)(F)F)c2)N1 [Compound 27, (5R,6R)-6-(3,5-Bis(trifluoromethyl)benzyloxymethyl)-4-(5-oxo-4,5-dihydro-1H-(1,2,4)triazol-3-ylmethyl)-5-phenylpiperazin-2-one]
melting point: 138 to 140 °C

O=C1CN(Cc2n[nH]c(=O)[nH]2)[C@@H](c2ccc(F)cc2)[C@@H](COCc2cc(C(F)(F)F)cc(C(F)(F)F)c2)N1 [Compound 32, (5S,6S)-6-(3,5-Bis(trifluoromethyl)benzyloxymethyl)-5-(4-fluorophenyl)-4-(5-oxo-4,5-dihydro-1H-(1,2,4)triazol-3-ylmethyl)piperazin-2-one]
melting point: 129 to 132 °C
IC50 (human NK1 receptors): 0.24 nM

CN1C(=O)CN(Cc2n[nH]c(=O)[nH]2)[C@@H](c2ccc(F)cc2)[C@H]1COCc1cc(C(F)(F)F)cc(C(F)(F)F)c1 [Compound 38, (5S,6S)-6-(3,5-Bis(trifluoromethyl)benzyloxymethyl)-5-(4-fluorophenyl)-1-methyl-4-(5-oxo-4,5-dihydro-1H-(1,2,4)triazol-3-ylmethyl)piperazin-2-one]
melting point: 212 to 213 °C

O=C1CN(Cc2n[nH]c(=O)[nH]2)[C@@H](c2ccc(F)cc2)[C@@H](COCc2cc(C(F)(F)F)cc(C(F)(F)F)c2)N1 [Compound 40, (5S,6S)-6-(3,5-Bis(trifluoromethyl)benzyloxymethyl)-5-(4-fluorophenyl)-4-(5-oxo-4,5-dihydro-1H-(1,2,4)triazol-3-ylmethyl)piperazin-2-one]
melting point: 138 to 140 °C

COc1ccccc1CN(C[C@@H](Cc1c[nH]c2ccccc12)NC(=O)CN1CCC(N2CCCCC2)CC1)C(C)=O [LY-303870, reference compound]
amount of transuded blue dye, Mean ± S.E [1, 4]: 6.3 ± 2.1**
amount of transuded blue dye, Mean ± S.E [1, 5]: 7.8 ± 2.5**
amount of transuded blue dye, Mean ± S.E [1, 6]: 17.0 ± 3.4
amount of transuded blue dye, Mean ± S.E [1, 9]: 12.2 ± 2.2**
amount of transuded blue dye, Mean ± S.E [1, 7]: 14.4 ± 0.9**
amount of transuded blue dye, Mean ± S.E [2, 4]: 5.3 ± 2.3**
amount of transuded blue dye, Mean ± S.E [2, 5]: 5.8 ± 1.9**
amount of transuded blue dye, Mean ± S.E [2, 6]: 14.5 ± 5.0
amount of transuded blue dye, Mean ± S.E [2, 9]: 11.1 ± 4.3
amount of transuded blue dye, Mean ± S.E [2, 7]: 10.8 ± 3.4
amount of transuded blue dye, Mean ± S.E [3, 4]: 2.0 ± 1.2**
amount of transuded blue dye, Mean ± S.E [3, 5]: 5.0 ± 2.2**
amount of transuded blue dye, Mean ± S.E [3, 6]: 12.0 ± 3.2*
amount of transuded blue dye, Mean ± S.E [3, 9]: 7.7 ± 1.8**
amount of transuded blue dye, Mean ± S.E [3, 7]: 13.6 ± 1.1**
